Experimental data taken from the supplement of paper PMC10307832.

Tests used:
Experiment in all cases: relative viability (nuclei count vs DMSO), 5 days (fraction); higher = more cells survive
Carboplatin + Foretinib = compound: C1CC(C1)(C(=O)O)C(=O)O.[NH2-].[NH2-].[Pt+2] [Carboplatin] + COc1cc2c(Oc3ccc(NC(=O)C4(C(=O)Nc5ccc(F)cc5)CC4)cc3F)ccnc2cc1OCCCN1CCOCC1 [Foretinib] (partner 0.25 µM)
How it was run: (§1)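 A single step with final 0.05% Triton X-100, 1% formaldehyde and 1 ug/ml Hoechst fixed the cells and stained nuclei 5 days after treatment. Lung cancer cell lines in 1536-well plates had been treated by pin tool the day after seeding with one drug alone or a fixed anchor-drug dose plus five library-drug doses (not always all listed) in √10 steps, and nuclei were counted on 4× images. Relative viability is the ratio of nuclei in treated wells to nuclei in vehicle wells, taken as the median of duplicate plates.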

GSK126 + Pemetrexed = compound: CC[C@H](C)N1C=C(C2=C(C=C(C=C21)C3=CN=C(C=C3)N4CCNCC4)C(=O)NCC5=C(C=C(NC5=O)C)C)C [GSK126] + Nc1nc2[nH]cc(CCc3ccc(C(=O)N[C@@H](CCC(=O)O)C(=O)O)cc3)c2c(=O)[nH]1 [Pemetrexed] (partner 0.2 µM)
How it was run: as §1

MLN4924 + Tozasertib = compound: NS(=O)(=O)OC[C@@H]1C[C@@H](n2ccc3c(N[C@H]4CCc5ccccc54)ncnc32)C[C@@H]1O [MLN4924] + Cc1cc(Nc2cc(N3CCN(C)CC3)nc(Sc3ccc(NC(=O)C4CC4)cc3)n2)n[nH]1 [Tozasertib] (partner 0.1 µM)
How it was run: as §1

MLN4924 + Decitabine = compound: NS(=O)(=O)OC[C@@H]1C[C@@H](n2ccc3c(N[C@H]4CCc5ccccc54)ncnc32)C[C@@H]1O [MLN4924] + Nc1ncn([C@H]2C[C@H](O)[C@@H](CO)O2)c(=O)n1 [Decitabine] (partner 2 µM)
How it was run: as §1

Cell Line	relative viability (Carboplatin + Foretinib; first compound 0.08 µM)	relative viability (Carboplatin + Foretinib; first compound 0.253 µM)	relative viability (Carboplatin + Foretinib; first compound 0.8 µM)	relative viability (Carboplatin + Foretinib; first compound 2.53 µM)	relative viability (Carboplatin + Foretinib; first compound 8 µM)	relative viability (GSK126 + Pemetrexed; first compound 0.08 µM)	relative viability (GSK126 + Pemetrexed; first compound 0.253 µM)	relative viability (GSK126 + Pemetrexed; first compound 0.8 µM)	relative viability (GSK126 + Pemetrexed; first compound 2.53 µM)	relative viability (GSK126 + Pemetrexed; first compound 8 µM)	relative viability (MLN4924 + Tozasertib; first compound 0.04 µM)	relative viability (MLN4924 + Tozasertib; first compound 0.1265 µM)	relative viability (MLN4924 + Tozasertib; first compound 0.4 µM)	relative viability (MLN4924 + Tozasertib; first compound 1.265 µM)	relative viability (MLN4924 + Tozasertib; first compound 4 µM)	relative viability (MLN4924 + Decitabine; first compound 0.04 µM)	relative viability (MLN4924 + Decitabine; first compound 0.1265 µM)	relative viability (MLN4924 + Decitabine; first compound 0.4 µM)	relative viability (MLN4924 + Decitabine; first compound 1.265 µM)	relative viability (MLN4924 + Decitabine; first compound 4 µM)
COR-L23	0.948	0.94	0.91	0.729	0.512	0.229	0.194	0.188	0.185	0.183	0.207	0.205	0.181	0.122	0.0744	0.465	0.431	0.321	0.156	0.138
NCI-H2009	1.25	1.18	1.12	1	0.767	1.11	1.03	1	0.982	1.06	0.724	0.433	0.257	0.126	0.0886	0.342	0.289	0.218	0.174	0.118
PC-3 [JPC-3]	1.08	1.03	1	1.05	0.933	1.15	1.04	1.08	1.22	1.08	0.903	0.785	0.652	0.366	0.275	0.808	0.83	0.408	0.46	0.451
NCI-H2085	1.05	0.933	1.1	0.899	0.691	1.03	0.874	0.894	0.854	0.978	0.855	0.894	0.827	0.78	0.48	0.492	0.58	0.612	0.48	0.424
EKVX	0.903	0.893	–	0.749	0.747	0.403	0.373	0.413	0.374	0.31	0.408	0.457	0.299	0.155	0.127	0.35	0.369	0.346	0.22	0.191
NCI-H2405	1.15	1.09	0.983	0.958	0.952	1.01	0.993	0.994	1.09	0.94	0.802	0.644	0.484	0.231	0.266	0.659	0.483	0.406	0.28	0.28
201T	1.28	1.05	0.917	0.867	0.618	0.346	0.342	0.329	0.367	0.328	1.07	0.737	0.697	0.301	0.319	0.88	0.653	0.582	0.368	0.293
NCI-H1755	1.01	0.897	0.899	0.929	0.86	0.401	0.483	0.402	0.403	0.36	0.529	0.411	0.291	0.208	0.209	0.644	0.545	0.526	0.378	0.245
NCI-H647	1.15	1.24	1.13	1.17	0.84	0.236	0.197	0.188	0.163	0.19	0.281	0.181	0.149	0.0334	0.0369	0.363	0.221	0.142	0.0732	0.0787
NCI-H1651	0.791	0.827	0.822	0.795	0.413	0.651	0.594	0.566	0.67	0.636	0.759	0.782	0.524	0.321	0.133	0.578	0.586	0.46	0.216	0.146
NCI-H1437	1.28	1.34	1.22	1.2	1.08	0.298	0.325	0.306	0.305	0.353	0.298	0.254	0.176	0.195	0.133	0.529	0.435	0.438	0.254	0.249
NCI-H1975	1.08	1.02	0.782	0.88	0.946	0.276	0.306	0.304	0.305	0.277	0.675	0.836	0.796	0.451	0.241	0.413	0.429	0.309	0.237	0.201
BEN	0.778	0.654	0.69	0.658	0.589	0.881	0.715	0.832	0.896	0.785	0.411	0.308	0.35	0.228	0.222	0.517	0.436	0.383	0.288	0.243
NCI-H441	0.929	0.971	0.744	1.01	0.915	0.289	0.281	0.272	0.248	0.267	0.674	0.444	0.329	0.236	0.22	0.253	0.241	0.22	0.158	0.175
NCI-H2170	0.994	0.527	1.02	0.942	0.468	0.249	0.245	0.271	0.256	0.264	0.722	0.407	0.325	0.151	0.155	0.444	0.249	0.273	0.167	0.144
NCI-H3122	0.944	0.986	0.926	0.91	0.923	0.203	0.208	0.185	0.204	0.209	0.347	0.226	0.113	0.0963	0.103	0.423	0.264	0.2	0.14	0.125
